For 14 compounds, Emax and EC50 results are on record in patent US20060240048A1 (priority 2002, published 2006).

In the experiment the target is T1, human cannabinoid CB2 receptor (Homo sapiens, UniProt P34972).
T1 construct: expressed in transfected cells; host or cells: Saccharomyces cerevisiae strain MMY23
The experiment is described as follows: Cannabinoid CB2 receptor agonist activity, yeast reporter assay (FDGlu fluorescence).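 For Emax: 100% equals maximal response of reference agonist HU210.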 Format: cell-based. Conditions: for Emax: read-out: efficacy value (Emax) at the cloned human cannabinoid CB2 receptor.

T1 sequence (P34972 whole entry): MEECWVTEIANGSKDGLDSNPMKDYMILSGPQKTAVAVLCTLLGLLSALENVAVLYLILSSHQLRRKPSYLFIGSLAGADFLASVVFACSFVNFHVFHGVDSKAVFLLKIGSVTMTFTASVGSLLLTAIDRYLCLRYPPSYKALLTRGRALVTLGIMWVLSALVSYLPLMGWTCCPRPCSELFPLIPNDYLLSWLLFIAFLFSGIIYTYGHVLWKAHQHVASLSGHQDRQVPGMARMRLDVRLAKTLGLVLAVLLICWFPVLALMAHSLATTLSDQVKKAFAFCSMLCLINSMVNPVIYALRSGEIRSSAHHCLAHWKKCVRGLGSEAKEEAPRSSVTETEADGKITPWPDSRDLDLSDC

The Emax is the greatest response seen or fitted, relative to the assay's reference. On to `CC(C)c1cc(Nc2ccc(Cl)cc2Cl)ncc1C(=O)NCC1CCOCC1` [Example 17, 6-(2,4-Dichloro-phenylamino)-4-isopropyl-N-(tetrahydro-pyran-4-ylmethyl)-nicotinamide], for which the Emax is more than 50%.
For orientation: EC50 means the concentration giving half of the maximal effect. A low value points to greater potency. `O=C(NCC1CCCC1)c1cnc(Nc2ccccc2)cc1C(F)(F)F` [Example 108, N-Cyclopentylmethyl-6-phenylamino-4-trifluoro-methyl-nicotinamide]: the EC50 is less than 300 nM and the Emax is more than 50%.
With `CC(C)c1cc(Nc2ccc(C#N)c(Cl)c2)ncc1C(=O)NCC1CCCC1` [Example 247, 6-(3-Chloro-4-cyano-phenytamino)-N-cyclopentylmethyl-4-isopropyl-nicotinamide], the 50% effective concentration (EC50) is less than 300 nM and the Emax is more than 50%.
In the same order, the values of `CC(C)c1cc(Nc2ccc(C#N)cc2F)ncc1C(=O)NCC1CCCC1` [Example 293, 6-(4-Cyano-2-fluoro-phenylamino)-N-cyclopentylmethyl-4-isopropyl-nicotinamide] are less than 300 nM and more than 50%.
In the same order, the values of `Cc1ccc(C(F)(F)F)cc1Nc1cc(C(C)C)c(C(=O)NCC2CCOCC2)cn1` [Example 88, 4-lsopropyl-6-(2-methyl-5-trifluoromethyl-phenylamino)-N-(tetrahydro-pyran-4-ylmethyl)-nicotinamide] are less than 300 nM and more than 50%.
`CC(C)c1cc(Nc2cccc(Cl)c2)ncc1C(=O)N1CCOCC1` [Example 11, 1-[6-(3-Chloro-phenylamino)-4-isopropyl-pyridin-3-yl]-1-morpholin-4-yl-methanone]: the half-maximal effective concentration (EC50) is less than 300 nM and the Emax is more than 50%.
For the compound `COc1ccc(Cl)cc1Nc1cc(C(F)(F)F)c(C(=O)NCC2CCC2)cn1` [Example 169, N-Cyclobutylmethyl-6-(2-methoxy-5-chloro-phenyl-amino)-4-trifluoromethyl-nicotinamide], the maximal response (Emax) was more than 50%.
With `O=C(NCC1CCCC1)c1cnc(Nc2ccc(Cl)cc2Cl)cc1C(F)(F)F` [Example 141, N-Cyclopentylmethyl-6-(2,4-dichloro-phenylamino)-4-tri-fluoromethyl-nicotinamide], the Emax is more than 50%.
With `O=C(NCC1CCC1)c1cnc(Nc2ccccc2)cc1C(F)(F)F` [Example 109, N-Cyclobutylmethyl-6-phenylamino-4-trifluoro-methyl-nicotinamide], the EC50 is less than 300 nM and the Emax was more than 50%.
As to `CC(C)CNC(=O)c1cnc(Nc2cccc(Cl)c2)cc1C(F)(F)F` [Example 113, N-Isobutyl-6-(3-chloro-phenylamino)-4-trifluoro-methyl-nicotinainide], the EC50 was less than 300 nM and the Emax is more than 50%.
For the compound `CC(C)c1cc(Nc2cc(F)cc(F)c2)ncc1C(=O)NCC1CCOCC1` [Example 242, 6-(3,5-Difluoro-phenylamino)-4-isopropyl-N-(tetrahydro-pyran-4-ylmethyl)-nicotinamide], the EC50 was less than 300 nM and the Emax was more than 50%.
For `COc1cccc(Nc2cc(C(C)C)c(C(=O)NCC3CCC3)cn2)c1` [Example 38, N-Cyclobutylmethyl-4-isopropyl-6-(3-methoxy-phenylamino)-nicotinamide], in that order: less than 300 nM and more than 50%.
For `O=C(NC1CCC1)c1cnc(Nc2ccc(Cl)c(Cl)c2)cc1C(F)(F)F` [Example 154, N-Cyclobutyl-6-(3,4-dichloro-phenylamino)-4-trifluoro-methyl-nicotinamide], in that order: less than 300 nM and more than 50%.
For `Cc1cc(C#N)ccc1Nc1cc(C(C)C)c(C(=O)NCC2CCOCC2)cn1` [Example 220, 6-(4-Cyano-2-methyl-phenylamino)-4-isopropyl-N-(tetrahydro-pyran-4-ylmethyl)-nicotinamide], in that order: less than 300 nM and more than 50%.
